Test results taken from PMC3399817 (PLoS ONE, 2012).

How the values were obtained:
Experiment in all cases: KINOMEscan
Format in all cases: binding
BRK = biological target: T1, BRK (Homo sapiens, UniProt Q13882); conditions: 1 uM
T1 construct: purchased Ambit KINOMEscan (DiscoverX)
Outline: (§1)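 Test concentration 1 μM for all compounds. Values reflect interference with substrate binding, not catalytic turnover.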

GRK1 = biological target: T2, GRK1 (Homo sapiens, UniProt Q15835); conditions: GRK1, 1 uM
T2 construct: purchased Ambit KINOMEscan (DiscoverX)
Outline: as §1

YANK3 = biological target: T3, YANK3 (Homo sapiens, UniProt Q86UX6); conditions: YANK3, 1 uM
T3 construct: purchased Ambit KINOMEscan (DiscoverX)
Outline: as §1

DYRK1A = biological target: T4, DYRK1A (Homo sapiens, UniProt Q13627); conditions: 1 uM
T4 construct: purchased Ambit KINOMEscan (DiscoverX)
Outline: as §1

STK39 = biological target: T5, STK39 (Homo sapiens, UniProt Q9UEW8); conditions: STK39, 1 uM
T5 construct: purchased Ambit KINOMEscan (DiscoverX)
Outline: as §1

ADCK3 = biological target: T6, ADCK3 (Homo sapiens, UniProt Q8NI60); conditions: ADCK3, 1 uM
T6 construct: purchased Ambit KINOMEscan (DiscoverX)
Outline: as §1

IGF1R = biological target: T7, IGF1R (Homo sapiens, UniProt P08069); conditions: 1 uM
T7 construct: purchased Ambit KINOMEscan (DiscoverX)
Outline: as §1

MST1 = biological target: T8, MST1 (Homo sapiens, UniProt Q13043); conditions: MST1, 1 uM
T8 construct: purchased Ambit KINOMEscan (DiscoverX)
Outline: as §1

PDPK1 = biological target: T9, PDPK1 (Homo sapiens, UniProt O15530); conditions: PDPK1, 1 uM
T9 construct: purchased Ambit KINOMEscan (DiscoverX)
Outline: as §1

DAPK1 = biological target: T10, DAPK1 (Homo sapiens, UniProt P53355); conditions: DAPK1, 1 uM
T10 construct: purchased Ambit KINOMEscan (DiscoverX)
Outline: as §1

PIK3CA(E545A) = biological target: T11, PIK3CA(E545A) (Homo sapiens, UniProt P42336, E545A); conditions: 1 uM
T11 construct: purchased Ambit KINOMEscan (DiscoverX)
Outline: as §1

FGFR3(G697C) = biological target: T12, FGFR3(G697C) (Homo sapiens, UniProt P22607, G697C); conditions: 1 uM
T12 construct: purchased Ambit KINOMEscan (DiscoverX)
Outline: as §1

GCN2(Kin.Dom.2,S808G) = biological target: T13, GCN2(Kin.Dom.2,S808G) (Homo sapiens, UniProt Q9P2K8, S808G); conditions: 1 uM
T13 construct: GCN2(Kin.Dom.2,S808G); purchased Ambit KINOMEscan (DiscoverX)
Outline: as §1

AURKA = biological target: T14, AURKA (Homo sapiens, UniProt O14965); conditions: 1 uM
T14 construct: purchased Ambit KINOMEscan (DiscoverX)
Outline: as §1

GSK3A = biological target: T15, GSK3A (Homo sapiens, UniProt P49840); conditions: for % binding compared to no inhibitor control: GSK3A, 1 uM
T15 construct: purchased Ambit KINOMEscan (DiscoverX)
Outline: as §1

BRAF = biological target: T16, BRAF (Homo sapiens, UniProt P15056); conditions: 1 uM
T16 construct: purchased Ambit KINOMEscan (DiscoverX)
Outline: as §1

[1] = biological target: T17, RPS6KA5(Kin.Dom.2-C-terminal) (Homo sapiens, UniProt O75582); conditions: 1 uM
T17 construct: RPS6KA5(Kin.Dom.2-C-terminal); purchased Ambit KINOMEscan (DiscoverX)
Outline: as §1

MAP3K3 = biological target: T18, MAP3K3 (Homo sapiens, UniProt Q99759); conditions: MAP3K3, 1 uM
T18 construct: purchased Ambit KINOMEscan (DiscoverX)
Outline: as §1

MINK = biological target: T19, MINK (Homo sapiens, UniProt Q8N4C8); conditions: 1 uM
T19 construct: purchased Ambit KINOMEscan (DiscoverX)
Outline: as §1

PDGFRB = biological target: T20, PDGFRB (Homo sapiens, UniProt P09619); conditions: 1 uM
T20 construct: purchased Ambit KINOMEscan (DiscoverX)
Outline: as §1

MLK1 = biological target: T21, MLK1 (Homo sapiens, UniProt P80192); conditions: MLK1, 1 uM
T21 construct: purchased Ambit KINOMEscan (DiscoverX)
Outline: as §1

ADCK4 = biological target: T22, ADCK4 (Homo sapiens, UniProt Q96D53); conditions: ADCK4, 1 uM
T22 construct: purchased Ambit KINOMEscan (DiscoverX)
Outline: as §1

DDR1 = biological target: T23, DDR1 (Homo sapiens, UniProt Q08345); conditions: DDR1, 1 uM
T23 construct: purchased Ambit KINOMEscan (DiscoverX)
Outline: as §1

[2] = biological target: T24, RPS6KA1(Kin.Dom.1-N-terminal) (Homo sapiens, UniProt Q15418); conditions: 1 uM
T24 construct: RPS6KA1(Kin.Dom.1-N-terminal); purchased Ambit KINOMEscan (DiscoverX)
Outline: as §1

RIPK1 = biological target: T25, RIPK1 (Homo sapiens, UniProt Q13546); conditions: RIPK1, 1 uM
T25 construct: purchased Ambit KINOMEscan (DiscoverX)
Outline: as §1

TTK = biological target: T26, TTK (Homo sapiens, UniProt P33981); conditions: 1 uM
T26 construct: purchased Ambit KINOMEscan (DiscoverX)
Outline: as §1

TNK1 = biological target: T27, TNK1 (Homo sapiens, UniProt Q13470); conditions: TNK1, 1 uM
T27 construct: purchased Ambit KINOMEscan (DiscoverX)
Outline: as §1

QSK = biological target: T28, QSK (Homo sapiens, UniProt Q9Y2K2); conditions: 1 uM
T28 construct: purchased Ambit KINOMEscan (DiscoverX)
Outline: as §1

TIE1 = biological target: T29, TIE1 (Homo sapiens, UniProt P35590); conditions: TIE1, 1 uM
T29 construct: purchased Ambit KINOMEscan (DiscoverX)
Outline: as §1

CDC2L1 = biological target: T30, CDC2L1 (Homo sapiens, UniProt P21127); conditions: CDC2L1, 1 uM
T30 construct: purchased Ambit KINOMEscan (DiscoverX)
Outline: as §1

NIM1 = biological target: T31, NIM1 (Homo sapiens, UniProt Q8IY84); conditions: NIM1, 1 uM
T31 construct: purchased Ambit KINOMEscan (DiscoverX)
Outline: as §1

EGFR(G719S) = biological target: T32, EGFR(G719S) (Homo sapiens, UniProt P00533, G719S); conditions: 1 uM
T32 construct: purchased Ambit KINOMEscan (DiscoverX)
Outline: as §1

PIM1 = biological target: T33, PIM1 (Homo sapiens, UniProt P11309); conditions: PIM1, 1 uM
T33 construct: purchased Ambit KINOMEscan (DiscoverX)
Outline: as §1

FES = biological target: T34, FES (Homo sapiens, UniProt P07332); conditions: 1 uM
T34 construct: purchased Ambit KINOMEscan (DiscoverX)
Outline: as §1

TAOK3 = biological target: T35, TAOK3 (Homo sapiens, UniProt Q9H2K8); conditions: TAOK3, 1 uM
T35 construct: purchased Ambit KINOMEscan (DiscoverX)
Outline: as §1

HIPK1 = biological target: T36, HIPK1 (Homo sapiens, UniProt Q86Z02); conditions: for % binding compared to no inhibitor control: HIPK1, 1 uM
T36 construct: purchased Ambit KINOMEscan (DiscoverX)
Outline: as §1

BRSK2 = biological target: T37, BRSK2 (Homo sapiens, UniProt Q8IWQ3); conditions: BRSK2, 1 uM
T37 construct: purchased Ambit KINOMEscan (DiscoverX)
Outline: as §1

PIK4CB = biological target: T38, PIK4CB (Homo sapiens, UniProt Q9UBF8); conditions: 1 uM
T38 construct: purchased Ambit KINOMEscan (DiscoverX)
Outline: as §1

T36 sequence (Q86Z02 whole entry): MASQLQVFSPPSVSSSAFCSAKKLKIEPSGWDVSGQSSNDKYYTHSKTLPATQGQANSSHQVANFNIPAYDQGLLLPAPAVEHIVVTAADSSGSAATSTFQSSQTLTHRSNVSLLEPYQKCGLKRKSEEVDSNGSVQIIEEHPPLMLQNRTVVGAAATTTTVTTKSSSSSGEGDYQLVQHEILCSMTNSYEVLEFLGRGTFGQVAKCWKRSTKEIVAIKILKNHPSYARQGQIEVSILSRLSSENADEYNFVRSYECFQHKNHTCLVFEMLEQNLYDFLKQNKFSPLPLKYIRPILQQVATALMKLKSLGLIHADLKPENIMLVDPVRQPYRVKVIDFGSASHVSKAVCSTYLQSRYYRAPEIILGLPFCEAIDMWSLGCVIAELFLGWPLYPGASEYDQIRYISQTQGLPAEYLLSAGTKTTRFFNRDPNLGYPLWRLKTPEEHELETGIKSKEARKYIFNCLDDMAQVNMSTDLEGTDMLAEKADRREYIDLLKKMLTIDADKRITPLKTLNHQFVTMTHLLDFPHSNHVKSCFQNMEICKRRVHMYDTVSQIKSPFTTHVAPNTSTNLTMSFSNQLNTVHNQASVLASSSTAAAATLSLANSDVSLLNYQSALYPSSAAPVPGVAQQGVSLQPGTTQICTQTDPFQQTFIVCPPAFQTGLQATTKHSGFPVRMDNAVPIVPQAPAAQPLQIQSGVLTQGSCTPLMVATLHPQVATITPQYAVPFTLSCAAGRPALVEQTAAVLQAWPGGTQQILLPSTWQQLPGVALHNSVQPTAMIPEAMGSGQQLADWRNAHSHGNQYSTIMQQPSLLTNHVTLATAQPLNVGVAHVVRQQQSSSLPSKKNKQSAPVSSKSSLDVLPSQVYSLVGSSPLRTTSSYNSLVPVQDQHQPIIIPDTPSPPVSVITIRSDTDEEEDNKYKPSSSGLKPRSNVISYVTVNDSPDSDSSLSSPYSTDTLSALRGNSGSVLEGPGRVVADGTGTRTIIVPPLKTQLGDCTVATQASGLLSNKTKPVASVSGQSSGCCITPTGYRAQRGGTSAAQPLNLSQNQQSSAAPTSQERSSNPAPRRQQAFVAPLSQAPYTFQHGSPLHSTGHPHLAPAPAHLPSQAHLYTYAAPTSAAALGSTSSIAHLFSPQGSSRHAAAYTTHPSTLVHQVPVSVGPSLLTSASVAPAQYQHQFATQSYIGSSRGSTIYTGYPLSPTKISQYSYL
T15 sequence (P49840 whole entry): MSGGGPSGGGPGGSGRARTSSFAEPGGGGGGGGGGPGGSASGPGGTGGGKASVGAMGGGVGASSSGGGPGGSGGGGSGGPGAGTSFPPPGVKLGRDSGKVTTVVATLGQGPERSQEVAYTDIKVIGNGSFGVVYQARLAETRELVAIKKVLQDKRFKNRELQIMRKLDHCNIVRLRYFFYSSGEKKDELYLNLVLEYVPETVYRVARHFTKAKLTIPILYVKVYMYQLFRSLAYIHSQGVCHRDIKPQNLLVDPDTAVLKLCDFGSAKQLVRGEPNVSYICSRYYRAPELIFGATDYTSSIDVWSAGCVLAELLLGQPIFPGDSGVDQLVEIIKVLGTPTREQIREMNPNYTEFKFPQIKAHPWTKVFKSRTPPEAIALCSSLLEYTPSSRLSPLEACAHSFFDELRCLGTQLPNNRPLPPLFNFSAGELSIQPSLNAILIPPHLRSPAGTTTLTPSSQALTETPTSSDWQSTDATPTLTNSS
T2 sequence (Q15835 whole entry): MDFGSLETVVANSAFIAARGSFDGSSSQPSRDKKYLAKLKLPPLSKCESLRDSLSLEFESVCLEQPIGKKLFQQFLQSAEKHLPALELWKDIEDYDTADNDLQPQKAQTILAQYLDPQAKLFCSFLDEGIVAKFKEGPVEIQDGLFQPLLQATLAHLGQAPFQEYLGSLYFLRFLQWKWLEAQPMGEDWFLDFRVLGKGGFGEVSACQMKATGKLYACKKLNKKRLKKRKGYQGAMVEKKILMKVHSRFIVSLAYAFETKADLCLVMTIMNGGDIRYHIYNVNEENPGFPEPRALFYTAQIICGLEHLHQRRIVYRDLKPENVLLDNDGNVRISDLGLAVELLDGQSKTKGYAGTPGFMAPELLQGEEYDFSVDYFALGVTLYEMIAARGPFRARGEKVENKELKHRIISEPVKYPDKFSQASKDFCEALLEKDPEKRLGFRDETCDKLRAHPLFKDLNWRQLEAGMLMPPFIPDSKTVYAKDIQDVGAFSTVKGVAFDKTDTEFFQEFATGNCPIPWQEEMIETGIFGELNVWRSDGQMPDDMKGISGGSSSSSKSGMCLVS
T22 sequence (Q96D53 whole entry): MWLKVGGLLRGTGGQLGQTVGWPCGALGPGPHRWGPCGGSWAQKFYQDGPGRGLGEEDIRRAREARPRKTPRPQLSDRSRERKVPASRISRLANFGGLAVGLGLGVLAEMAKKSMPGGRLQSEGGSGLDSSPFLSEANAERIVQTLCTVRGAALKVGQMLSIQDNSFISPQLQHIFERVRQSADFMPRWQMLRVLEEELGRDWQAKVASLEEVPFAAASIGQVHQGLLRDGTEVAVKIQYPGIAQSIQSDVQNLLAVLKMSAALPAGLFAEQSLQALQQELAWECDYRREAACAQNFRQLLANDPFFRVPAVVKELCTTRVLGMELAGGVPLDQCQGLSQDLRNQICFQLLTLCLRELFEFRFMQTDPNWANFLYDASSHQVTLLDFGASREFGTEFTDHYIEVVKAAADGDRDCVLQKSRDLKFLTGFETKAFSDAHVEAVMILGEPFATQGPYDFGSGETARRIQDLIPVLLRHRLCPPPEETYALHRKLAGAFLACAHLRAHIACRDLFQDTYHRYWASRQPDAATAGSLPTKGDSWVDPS
T1 sequence (Q13882 whole entry): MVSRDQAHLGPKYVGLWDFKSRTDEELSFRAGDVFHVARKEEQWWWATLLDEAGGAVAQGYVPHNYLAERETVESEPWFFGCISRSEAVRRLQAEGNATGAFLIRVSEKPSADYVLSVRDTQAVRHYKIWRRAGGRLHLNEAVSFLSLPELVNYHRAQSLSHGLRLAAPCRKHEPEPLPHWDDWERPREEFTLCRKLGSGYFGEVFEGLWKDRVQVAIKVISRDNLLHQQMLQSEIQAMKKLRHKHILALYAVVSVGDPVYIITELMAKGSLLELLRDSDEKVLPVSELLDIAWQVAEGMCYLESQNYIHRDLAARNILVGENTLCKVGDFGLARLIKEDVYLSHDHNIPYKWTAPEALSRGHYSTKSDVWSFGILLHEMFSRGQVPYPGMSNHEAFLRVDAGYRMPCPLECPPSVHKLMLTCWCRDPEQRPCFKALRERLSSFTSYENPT
T11 sequence (P42336 whole entry E545A): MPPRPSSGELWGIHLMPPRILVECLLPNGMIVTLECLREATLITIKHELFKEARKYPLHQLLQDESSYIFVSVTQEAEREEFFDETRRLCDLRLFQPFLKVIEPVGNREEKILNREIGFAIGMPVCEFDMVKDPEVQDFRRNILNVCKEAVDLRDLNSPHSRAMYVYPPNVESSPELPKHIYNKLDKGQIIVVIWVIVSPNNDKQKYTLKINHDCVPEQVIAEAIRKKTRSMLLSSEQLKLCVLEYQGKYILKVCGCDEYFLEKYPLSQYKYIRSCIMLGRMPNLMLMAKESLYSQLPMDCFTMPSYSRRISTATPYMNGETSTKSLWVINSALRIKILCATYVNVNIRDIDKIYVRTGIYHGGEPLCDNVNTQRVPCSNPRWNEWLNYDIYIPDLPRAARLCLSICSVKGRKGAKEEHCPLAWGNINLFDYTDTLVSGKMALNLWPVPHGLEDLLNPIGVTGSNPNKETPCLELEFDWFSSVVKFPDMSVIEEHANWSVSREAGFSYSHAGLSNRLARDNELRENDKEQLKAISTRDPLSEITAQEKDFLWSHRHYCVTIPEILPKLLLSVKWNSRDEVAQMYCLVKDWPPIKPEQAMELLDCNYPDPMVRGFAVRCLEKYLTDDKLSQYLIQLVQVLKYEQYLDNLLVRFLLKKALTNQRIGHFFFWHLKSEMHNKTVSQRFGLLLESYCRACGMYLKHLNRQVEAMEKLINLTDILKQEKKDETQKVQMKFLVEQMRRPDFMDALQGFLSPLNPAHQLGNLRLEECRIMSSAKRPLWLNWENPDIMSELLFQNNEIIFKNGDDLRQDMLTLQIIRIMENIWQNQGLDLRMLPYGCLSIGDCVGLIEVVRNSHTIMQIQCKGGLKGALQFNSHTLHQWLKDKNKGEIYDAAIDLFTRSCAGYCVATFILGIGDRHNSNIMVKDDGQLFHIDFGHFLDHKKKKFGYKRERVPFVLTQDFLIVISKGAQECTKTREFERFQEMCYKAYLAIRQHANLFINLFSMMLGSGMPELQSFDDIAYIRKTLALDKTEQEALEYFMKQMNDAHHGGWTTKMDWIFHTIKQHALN
T25 sequence (Q13546 whole entry): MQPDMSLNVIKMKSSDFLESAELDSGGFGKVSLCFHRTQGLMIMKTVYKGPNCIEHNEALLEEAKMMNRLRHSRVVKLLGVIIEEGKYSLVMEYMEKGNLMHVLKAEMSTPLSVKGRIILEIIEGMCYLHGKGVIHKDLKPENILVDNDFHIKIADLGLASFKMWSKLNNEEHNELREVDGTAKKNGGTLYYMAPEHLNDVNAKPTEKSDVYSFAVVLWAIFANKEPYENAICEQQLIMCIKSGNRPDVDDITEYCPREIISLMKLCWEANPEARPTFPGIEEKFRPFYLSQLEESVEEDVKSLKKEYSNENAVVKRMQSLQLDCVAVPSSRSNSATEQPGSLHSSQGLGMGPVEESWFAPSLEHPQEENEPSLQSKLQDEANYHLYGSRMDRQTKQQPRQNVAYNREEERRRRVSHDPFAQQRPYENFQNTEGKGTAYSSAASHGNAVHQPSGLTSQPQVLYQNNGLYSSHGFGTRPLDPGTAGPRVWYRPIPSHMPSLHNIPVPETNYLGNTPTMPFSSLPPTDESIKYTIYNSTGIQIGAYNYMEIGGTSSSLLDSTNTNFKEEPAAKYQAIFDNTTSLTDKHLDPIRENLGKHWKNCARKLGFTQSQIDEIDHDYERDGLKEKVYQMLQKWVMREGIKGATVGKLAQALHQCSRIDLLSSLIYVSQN

Row | SMILES | % binding compared to no inhibitor control (BRK) [%] | % binding compared to no inhibitor control (GRK1) [%] | % binding compared to no inhibitor control (YANK3) [%] | % binding compared to no inhibitor control (DYRK1A) [%] | % binding compared to no inhibitor control (STK39) [%] | % binding compared to no inhibitor control (ADCK3) [%] | % binding compared to no inhibitor control (IGF1R) [%] | % binding compared to no inhibitor control (MST1) [%] | % binding compared to no inhibitor control (PDPK1) [%] | % binding compared to no inhibitor control (DAPK1) [%] | % binding compared to no inhibitor control (PIK3CA(E545A)) [%] | % binding compared to no inhibitor control (FGFR3(G697C)) [%] | % binding compared to no inhibitor control (GCN2(Kin.Dom.2,S808G)) [%] | % binding compared to no inhibitor control (AURKA) [%] | % binding compared to no inhibitor control (GSK3A) [%] | % binding compared to no inhibitor control (BRAF) [%] | % binding compared to no inhibitor control [1] [%] | % binding compared to no inhibitor control (MAP3K3) [%] | % binding compared to no inhibitor control (MINK) [%] | % binding compared to no inhibitor control (PDGFRB) [%] | other results
1 | COc1ccccc1Nc1nc(-c2ccc(OC)c(OC)c2)cc2nccn12 [BAY derivative 6] | 59 | 100 | 100 | 100 | 97 | 87 | 79 | 87 | 100 | 76 | 100 | 70 | 99 | 87 | 100 | 100 | 97 | 85 | 100 | 67 | % binding compared to no inhibitor control (MLK1): 100%; % binding compared to no inhibitor control (ADCK4): 69%; % binding compared to no inhibitor control (DDR1): 100%; % binding compared to no inhibitor control [2]: 82%; % binding compared to no inhibitor control (RIPK1): 100%; % binding compared to no inhibitor control (TTK): 74%; % binding compared to no inhibitor control (TNK1): 56%; % binding compared to no inhibitor control (QSK): 87%; % binding compared to no inhibitor control (TIE1): 94%; % binding compared to no inhibitor control (CDC2L1): 100%; % binding compared to no inhibitor control (NIM1): 100%; % binding compared to no inhibitor control (EGFR(G719S)): 100%; % binding compared to no inhibitor control (PIM1): 100%; % binding compared to no inhibitor control (FES): 100%; % binding compared to no inhibitor control (TAOK3): 100%; % binding compared to no inhibitor control (HIPK1): 85%; % binding compared to no inhibitor control (BRSK2): 100%; % binding compared to no inhibitor control (PIK4CB): 100%
2 | COc1ccc(-c2cc3nccn3c(Nc3ncccc3C(N)=O)n2)cc1OC.Cl.Cl [BAY61-3606, 2-[7-(3,4-dimethoxyphenyl)-imidazo [1,2-c]pyrimidin-5-ylamino] nicotinamide dihydrochloride, reference compound] | 87 | 65 | 53 | 24 | 46 | 99 | 97 | 85 | 99 | 66 | 90 | 83 | 54 | 91 | 17 | 90 | 89 | 97 | 62 | 47 | % inhibition ATP binding (GSK3A; GSK3α, KINOMEscan, 1 μM): 83%; % binding compared to no inhibitor control (MLK1): 100%; % binding compared to no inhibitor control (ADCK4): 9.9%; % binding compared to no inhibitor control (DDR1): 99%; % binding compared to no inhibitor control [2]: 96%; % binding compared to no inhibitor control (RIPK1): 86%; % binding compared to no inhibitor control (TTK): 51%; % binding compared to no inhibitor control (TNK1): 82%; % binding compared to no inhibitor control (QSK): 100%; % binding compared to no inhibitor control (TIE1): 100%; % binding compared to no inhibitor control (CDC2L1): 95%; % binding compared to no inhibitor control (NIM1): 88%; % binding compared to no inhibitor control (EGFR(G719S)): 71%; % binding compared to no inhibitor control (PIM1): 78%; % binding compared to no inhibitor control (FES): 88%; % binding compared to no inhibitor control (TAOK3): 100%; % binding compared to no inhibitor control (HIPK1): 8.8%; % inhibition ATP binding (HIPK1; HIPK1, KINOMEscan, 1 μM): 91.2%; % binding compared to no inhibitor control (BRSK2): 84%; % binding compared to no inhibitor control (PIK4CB): 24%
